Experimental data: US11377442B2, “Small molecule agonists and antagonists of NR2F6 activity” (ZANDER THERAPEUTICS, INC., priority 2016, dated 2022)
Like-named read-outs stand apart in the source and are kept apart here.

Experiments:
Assay type in all cases: cell-based
Renilla [1] = assay: Renilla signal, LBD, cmpd/DMSO (NR2F6 LBD transfected cells)
NR2F6 LBD = molecular target: T1, NR2F6 LBD (Homo sapiens, UniProt P10588); assay: NR2F6 LBD transient transfection
T1 construct: expressed in transfected cells
T1 sequence (P10588 165-393 limits assumed): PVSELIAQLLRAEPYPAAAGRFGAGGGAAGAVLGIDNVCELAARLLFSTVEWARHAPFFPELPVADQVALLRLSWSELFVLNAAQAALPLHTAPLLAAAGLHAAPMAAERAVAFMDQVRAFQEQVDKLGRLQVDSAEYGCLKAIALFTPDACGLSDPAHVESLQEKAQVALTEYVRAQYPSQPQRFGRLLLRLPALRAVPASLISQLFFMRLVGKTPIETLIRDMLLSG
Summary of the method: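 LBD-transfected cells treated at 40, 10, 2 and 0.5 μM (4 replicates); cytotoxicity measured in parallel, normalized to DMSO (0%) and zero signal (100%). Higher concentrations excluded where signal loss reflected toxicity.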

Renilla [2] = assay: Renilla signal in NR2F6 agonist screening, cmpd/DMSO; conditions: Renilla
HEK293 pGL4 = assay: Firefly_pGL signal, cmpd/DMSO (pGL4 control cells); conditions: Homo sapiens
NR2F6 = molecular target: T2, NR2F6 (Homo sapiens, UniProt P10588); assay: NR2F6 agonist screening, Firefly signal cmpd/DMSO
T2 construct: expressed in transfected cells; also transient transfection
T2 sequence (P10588 1-404): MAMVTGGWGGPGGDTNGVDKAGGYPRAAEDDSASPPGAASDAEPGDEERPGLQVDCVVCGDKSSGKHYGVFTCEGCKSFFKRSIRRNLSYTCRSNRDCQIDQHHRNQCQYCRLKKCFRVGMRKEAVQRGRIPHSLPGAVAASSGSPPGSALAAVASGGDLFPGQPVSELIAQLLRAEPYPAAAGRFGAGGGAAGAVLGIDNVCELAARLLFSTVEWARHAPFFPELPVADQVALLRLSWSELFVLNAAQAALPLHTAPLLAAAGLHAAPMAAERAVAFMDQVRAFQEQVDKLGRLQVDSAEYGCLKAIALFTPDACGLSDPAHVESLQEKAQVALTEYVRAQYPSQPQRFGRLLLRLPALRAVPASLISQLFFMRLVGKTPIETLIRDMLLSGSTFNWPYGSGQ

[3] = read-out: Renilla F4, cmpd/DMSO (mean)
[4] = F4, 1% FBS, read-out: Renilla, F4, 1% FBS, cmpd/DMSO (mean)
[5] = F4, 10% FBS, read-out: Renilla, F4, 10% FBS, cmpd/DMSO (mean)
[6] = HEK293, 0.5 uM, read-out: Firefly pGL4, cmpd/DMSO (mean)
[7] = HEK293, 2 uM, read-out: Firefly pGL4, cmpd/DMSO (mean)
[8] = HEK293, 10 uM, read-out: Firefly pGL4, cmpd/DMSO (mean)
[9] = HEK293, 40 uM, read-out: Firefly pGL4, cmpd/DMSO (mean)
[10] = HEK293, pGL4, 1% FBS, 0.5 uM, read-out: Firefly, pGL4, 1% FBS, cmpd/DMSO (mean)
[11] = HEK293, pGL4, 1% FBS, 2 uM, read-out: Firefly, pGL4, 1% FBS, cmpd/DMSO (mean)
[12] = HEK293, pGL4, 1% FBS, 10 uM, read-out: Firefly, pGL4, 1% FBS, cmpd/DMSO (mean)
[13] = HEK293, pGL4, 1% FBS, 40 uM, read-out: Firefly, pGL4, 1% FBS, cmpd/DMSO (mean)
[14] = HEK293, pGL4, 10% FBS, 0.5 uM, read-out: Firefly, pGL4, 10% FBS, cmpd/DMSO (mean)
[15] = HEK293, pGL4, 10% FBS, 2 uM, read-out: Firefly, pGL4, 10% FBS, cmpd/DMSO (mean)
[16] = HEK293, pGL4, 10% FBS, 10 uM, read-out: Firefly, pGL4, 10% FBS, cmpd/DMSO (mean)
[17] = HEK293, pGL4, 10% FBS, 40 uM, read-out: Firefly, pGL4, 10% FBS, cmpd/DMSO (mean)

O=S1(=O)C[C@H](NCC2CCCO2)[C@@H](S(=O)(=O)c2cccs2)C1 (stereo partly drawn) [Compound D134]
Renilla LBD, cmpd/DMSO (mean) (Renilla [1]; 0.5 uM): 0.9 | Renilla LBD, cmpd/DMSO (mean) (Renilla [1]; 2 uM): 0.9 | Renilla LBD, cmpd/DMSO (mean) (Renilla [1]; 10 uM): 1.0 | Renilla LBD, cmpd/DMSO (mean) (Renilla [1]; 40 uM): 0.7 | Firefly LBD, cmpd/DMSO (mean) (NR2F6 LBD; 0.5 uM): 1.5 | Firefly LBD, cmpd/DMSO (mean) (NR2F6 LBD; 2 uM): 1.5 | Firefly LBD, cmpd/DMSO (mean) (NR2F6 LBD; 10 uM): 1.9 | Firefly LBD, cmpd/DMSO (mean) (NR2F6 LBD; 40 uM): 1.8 | fold induction at 0.5 µM (Renilla [2]; [3]): 1.1 | fold induction at 2 µM (Renilla [2]; [3]): 1.2 | fold induction at 10 µM (Renilla [2]; [3]): 1.3 | fold induction at 40 µM (Renilla [2]; [3]): 1.5 | fold induction at 0.5 µM (Renilla [2]; [4]): 1 | fold induction at 2 µM (Renilla [2]; [4]): 1.2 | fold induction at 10 µM (Renilla [2]; [4]): 1.4 | fold induction at 40 µM (Renilla [2]; [4]): 2.1 | fold induction at 0.5 µM (Renilla [2]; [5]): 1 | fold induction at 2 µM (Renilla [2]; [5]): 1 | fold induction at 10 µM (Renilla [2]; [5]): 1.3 | fold induction at 40 µM (Renilla [2]; [5]): 2 | fold induction at 0.5 µM (HEK293 pGL4; [6]): 1 | fold induction at 2 µM (HEK293 pGL4; [7]): 1.3 | fold induction at 10 µM (HEK293 pGL4; [8]): 1.6 | fold induction at 40 µM (HEK293 pGL4; [9]): 1.7 | fold induction at 0.5 µM (HEK293 pGL4; [10]): 1 | fold induction at 2 µM (HEK293 pGL4; [11]): 1.3 | fold induction at 10 µM (HEK293 pGL4; [12]): 1.3 | fold induction at 40 µM (HEK293 pGL4; [13]): 1.4 | fold induction at 0.5 µM (HEK293 pGL4; [14]): 1.2 | fold induction at 2 µM (HEK293 pGL4; [15]): 1.3 | fold induction at 10 µM (HEK293 pGL4; [16]): 1.7 | fold induction at 40 µM (HEK293 pGL4; [17]): 2 | Firefly F4, cmpd/DMSO (mean) (NR2F6; 0.5 uM): 1.5 | Firefly F4, cmpd/DMSO (mean) (NR2F6; 2 uM): 2.3 | Firefly F4, cmpd/DMSO (mean) (NR2F6; 10 uM): 2.1 | Firefly F4, cmpd/DMSO (mean) (NR2F6; 40 uM): 2.8 | F4, Firefly/Renilla for S/B(F4) > 3 (NR2F6; 1% FBS, 40 uM): 2.6 | Firefly, F4/pGL4 for S/B(F4) > 3 (NR2F6; 1% FBS, 40 uM): 4.0 | F4, Firefly/Renilla for S/B(F4) > 3 (NR2F6; 10% FBS, 40 uM): 2.3 | Firefly, F4/pGL4 for S/B(F4) > 3 (NR2F6; 10% FBS, 40 uM): 2.3 | Firefly, F4, 1% FBS, cmpd/DMSO (mean) (NR2F6; 1% FBS, 0.5 uM): 1.0 | Firefly, F4, 1% FBS, cmpd/DMSO (mean) (NR2F6; 1% FBS, 2 uM): 1.2 | Firefly, F4, 1% FBS, cmpd/DMSO (mean) (NR2F6; 1% FBS, 10 uM): 2.0 | Firefly, F4, 1% FBS, cmpd/DMSO (mean) (NR2F6; 1% FBS, 40 uM): 5.4 | Firefly, F4, 10% FBS, cmpd/DMSO (mean) (NR2F6; 10% FBS, 0.5 uM): 1.1 | Firefly, F4, 10% FBS, cmpd/DMSO (mean) (NR2F6; 10% FBS, 2 uM): 1.0 | Firefly, F4, 10% FBS, cmpd/DMSO (mean) (NR2F6; 10% FBS, 10 uM): 2.1 | Firefly, F4, 10% FBS, cmpd/DMSO (mean) (NR2F6; 10% FBS, 40 uM): 4.6

O=S1(=O)C[C@H](NCc2ccco2)[C@@H](S(=O)(=O)c2cccs2)C1 [Compound D135]
Renilla LBD, cmpd/DMSO (mean) (Renilla [1]; 0.5 uM): 0.9 | Renilla LBD, cmpd/DMSO (mean) (Renilla [1]; 2 uM): 0.9 | Renilla LBD, cmpd/DMSO (mean) (Renilla [1]; 10 uM): 0.8 | Renilla LBD, cmpd/DMSO (mean) (Renilla [1]; 40 uM): 0.9 | Firefly LBD, cmpd/DMSO (mean) (NR2F6 LBD; 0.5 uM): 1.4 | Firefly LBD, cmpd/DMSO (mean) (NR2F6 LBD; 2 uM): 1.7 | Firefly LBD, cmpd/DMSO (mean) (NR2F6 LBD; 10 uM): 1.6 | Firefly LBD, cmpd/DMSO (mean) (NR2F6 LBD; 40 uM): 2.8 | fold induction at 0.5 µM (Renilla [2]; [3]): 0.9 | fold induction at 2 µM (Renilla [2]; [3]): 1.2 | fold induction at 10 µM (Renilla [2]; [3]): 1 | fold induction at 40 µM (Renilla [2]; [3]): 1.3 | fold induction at 0.5 µM (Renilla [2]; [4]): 1 | fold induction at 2 µM (Renilla [2]; [4]): 1.3 | fold induction at 10 µM (Renilla [2]; [4]): 1.2 | fold induction at 40 µM (Renilla [2]; [4]): 1.7 | fold induction at 0.5 µM (Renilla [2]; [5]): 1 | fold induction at 2 µM (Renilla [2]; [5]): 1.1 | fold induction at 10 µM (Renilla [2]; [5]): 1.1 | fold induction at 40 µM (Renilla [2]; [5]): 1.9 | fold induction at 0.5 µM (HEK293 pGL4; [6]): 1 | fold induction at 2 µM (HEK293 pGL4; [7]): 1.6 | fold induction at 10 µM (HEK293 pGL4; [8]): 1.4 | fold induction at 40 µM (HEK293 pGL4; [9]): 1.3 | fold induction at 0.5 µM (HEK293 pGL4; [10]): 1 | fold induction at 2 µM (HEK293 pGL4; [11]): 1 | fold induction at 10 µM (HEK293 pGL4; [12]): 0.8 | fold induction at 40 µM (HEK293 pGL4; [13]): 1.1 | fold induction at 0.5 µM (HEK293 pGL4; [14]): 0.9 | fold induction at 2 µM (HEK293 pGL4; [15]): 1.1 | fold induction at 10 µM (HEK293 pGL4; [16]): 1.7 | fold induction at 40 µM (HEK293 pGL4; [17]): 1.6 | Firefly F4, cmpd/DMSO (mean) (NR2F6; 0.5 uM): 1.7 | Firefly F4, cmpd/DMSO (mean) (NR2F6; 2 uM): 2.4 | Firefly F4, cmpd/DMSO (mean) (NR2F6; 10 uM): 1.9 | Firefly F4, cmpd/DMSO (mean) (NR2F6; 40 uM): 2.8 | F4, Firefly/Renilla for S/B(F4) > 3 (NR2F6; 1% FBS, 40 uM): 1.9 | Firefly, F4/pGL4 for S/B(F4) > 3 (NR2F6; 1% FBS, 40 uM): 3.0 | F4, Firefly/Renilla for S/B(F4) > 3 (NR2F6; 10% FBS, 40 uM): 1.9 | Firefly, F4/pGL4 for S/B(F4) > 3 (NR2F6; 10% FBS, 40 uM): 2.3 | Firefly, F4, 1% FBS, cmpd/DMSO (mean) (NR2F6; 1% FBS, 0.5 uM): 1.2 | Firefly, F4, 1% FBS, cmpd/DMSO (mean) (NR2F6; 1% FBS, 2 uM): 1.6 | Firefly, F4, 1% FBS, cmpd/DMSO (mean) (NR2F6; 1% FBS, 10 uM): 1.1 | Firefly, F4, 1% FBS, cmpd/DMSO (mean) (NR2F6; 1% FBS, 40 uM): 3.3 | Firefly, F4, 10% FBS, cmpd/DMSO (mean) (NR2F6; 10% FBS, 0.5 uM): 1.0 | Firefly, F4, 10% FBS, cmpd/DMSO (mean) (NR2F6; 10% FBS, 2 uM): 0.7 | Firefly, F4, 10% FBS, cmpd/DMSO (mean) (NR2F6; 10% FBS, 10 uM): 1.8 | Firefly, F4, 10% FBS, cmpd/DMSO (mean) (NR2F6; 10% FBS, 40 uM): 3.7
